What all share (assay type): binding
One assay addresses T1, Aster-A (Homo sapiens, UniProt Q96CP6).
T1 construct: Aster-A(359-547); GST (PreScission-cleavable) (N, cleaved yes); made in house; host or cells: E. coli OverExpress C41
T1 sequence (Q96CP6 359-547): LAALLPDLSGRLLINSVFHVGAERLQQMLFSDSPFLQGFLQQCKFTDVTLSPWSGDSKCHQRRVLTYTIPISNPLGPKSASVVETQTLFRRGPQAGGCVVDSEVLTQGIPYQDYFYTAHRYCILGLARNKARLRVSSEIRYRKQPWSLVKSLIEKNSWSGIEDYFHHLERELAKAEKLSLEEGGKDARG
Description: Fluorescence polarisation (FP) competition with NBD-cholesterol, Aster-A. Particulars: for Aster-A (FP) inhibition / inhibition at 10 µM: single dose, Dose = 10 µM; for IC50: mean of three experiments run in technical duplicates. The source says: (§1) Protein expression constructs
(§2) Human ASTER domains of Aster-A(359-547), -B(364-552) and -C(318-504) were subcloned into a pGEX-6p-2rbs vector, thus introducing the cloning artifact ‘GPLGS’.3 The pGEX-6P-1-GST-OSBP(377- […]
(§3) a gift from James H. Hurley (University of California).4 The pHIS_2His6_Thrombin_STARD4(2-205;C75S) plasmid was a gift from Young Jun Im (Chonnam National University).5 STARD5A was a gift from Nicola Burgess-Brown (Addgene plasmid #42392; http://n2t.net/addgene:42392; […]
(§4) Protein expression and purification […]
(§5) vectors including an N-terminal PreScission-cleavable glutathione S-transferase (GST)-tag were expressed in Escherichia coli (E. coli) OverExpress C41 in Terrific Broth (TB) medium for 16 h at 18 °C after the induction with 0.1 mM isopropyl β-D-1-thiogalactopyranoside (IPTG). Cells were harvested at 3500 × g for 15 minutes and lysed by sonication in buffer containing 50 mM HEPES pH 7.5, 300 mM NaCl, 10 %v/v glycerol, 5 mM dithiothreitol (DTT), 0.1 %v/v Triton X-100 and protease inhibitor mix HP plus (Serva). The lysate was purified by affinity chromatography on a GSTrap FF column (Cytiva) using an ÄKTA Start (Cytiva) in buffer containing 50 mM HEPES pH 7.5, 300 mM NaCl, 10 %v/v glycerol, 5 mM DTT and 0.01 %v/v Triton X-100. The GST-tag was cleaved overnight on the column at 4 °C. The Aster sterol binding domains were further purified by size-exclusion chromatography (SEC) on a HiLoad 16/600 Superdex 75 pg (Cytiva) in buffer containing 20 mM HEPES pH 7.5, 300 mM NaCl, 10 %v/v […]
(§6) STARD5(6-213) harboring an N-terminal His6-Tag were expressed in E. coli BL21(DE3) in Luria-Bertani Broth (LB) medium for approximately 16 h at 18 °C after induction with 0.15 mM IPTG. Cells were harvested at 3500 × g for 15 minutes and lysed by sonication in buffer containing 50 mM HEPES pH 7.5, 150 mM NaCl, 5 %v/v glycerol, 5 mM DTT, 0.1 %v/v Triton X -100 and ethylenediaminetetraacetic acid (EDTA)-free protease inhibitor cocktail (Sigma-Aldrich). The cleared lysate was purified by affinity chromatography on a Ni-NTA Superflow Cartridge (Qiagen) using an ÄKTA Start (Cytiva) in buffer containing 50 mM HEPES pH 7.5, 150 mM NaCl, 5 %v/v glycerol, 5 mM DTT. START domains were eluted by using elution buffer containing 50 mM HEPES pH 7.5, 150 mM NaCl, 5 %v/v glycerol, 5 mM DTT and 500 mM imidazole. Proteins were further purified by SEC on a HiLoad 16/600 Superdex 75 pg (Cytiva) in buffer containing 20 mM HEPES pH 7.5, 150 mM NaCl, 5 %v/v glycerol and 2 mM DTT.
(§7) The ORP domain of human OSBP(377-807) in the pGEX-6p-1 vector with an N-terminal PreScission-cleavable GST-tag was expressed in E. coli OverExpress C41 in LB medium for 16 h at 18 °C after induction with 0.1 mM IPTG. Cells were harvested at 3500 × g for 15 minutes and lysed by sonication in buffer containing 20 mM HEPES pH 7.5, 300 mM NaCl, 10 %v/v glycerol, 5 mM DTT, 0.1 %v/v Triton X-100 and EDTA-free protease inhibitor cocktail (Sigma-Aldrich). The cleared lysate was purified by affinity chromatography on a GSTrap HF column (Cytiva) using an ÄKTA Start (Cytiva) in buffer containing 20 mM HEPES pH 7.5, 300 mM NaCl, 10 %v/v glycerol, 5 mM DTT. OSBP(377 -807) was eluted by using elution buffer containing 20 mM HEPES pH 7.5, 300 mM NaCl, 10 %v/v glycerol, 5 mM DTT and 10 mM reduced glutathione. Proteins were further purified by SEC on a HiLoad 16/600 Superdex 75 pg (Cytiva) using an ÄKTA Explorer (Cytiva) in buffer containing 20 mM HEPES pH 7.5, 150 mM NaCl, 10 %v/v glycerol and 2 mM DTT.
(§8) The ORP domains of human ORP1(534-950) in pET24b(+) and ORP2(49-480) in the pET24b(+) vector including an N-terminal His6-Tag were expressed in E. coli BL21(DE3) in TB medium for approximately 16 h at 18 °C after induction with 0.1 mM IPTG. Cells were collected at 3500 × g for 15 minutes and lysed by sonification in buffer containing 10 mM Tris-HCl pH 8, 300 mM NaCl, 5 % glycerol, 2 mM DTT, 0.1 % Triton X-100 and EDTA-free protease inhibitor cocktail (Sigma-Aldrich). The cleared […]
A general note: Polarisation of emitted light reports the rotation of a fluorescent probe.

In a further assay the target is T2, Aster-B (Homo sapiens, UniProt Q3KR37).
T2 construct: -B(364-552); GST (PreScission-cleavable) (N, cleaved yes); made in house; host or cells: E. coli OverExpress C41
T2 sequence (Q3KR37 364-552): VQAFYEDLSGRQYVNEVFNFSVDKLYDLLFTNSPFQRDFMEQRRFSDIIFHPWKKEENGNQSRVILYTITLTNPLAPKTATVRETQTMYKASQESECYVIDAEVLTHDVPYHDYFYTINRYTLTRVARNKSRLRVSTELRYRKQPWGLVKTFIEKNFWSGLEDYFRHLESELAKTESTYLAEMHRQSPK
Description: Fluorescence polarisation (FP) competition with NBD-cholesterol, Aster-B. Particulars: for Aster-B (FP) inhibition / inhibition at 10 µM: single dose, Dose = 10 µM; for IC50: mean of three experiments run in technical duplicates.
Source text: as §1, §2, §3, §4, §5, §6, §7, §8

A further assay concerns the target T3, STARD3 (Homo sapiens, UniProt Q14849).
T3 construct: STARD3(216-444); made in house; host or cells: E. coli BL21(DE3)
T3 sequence (Q14849 216-444): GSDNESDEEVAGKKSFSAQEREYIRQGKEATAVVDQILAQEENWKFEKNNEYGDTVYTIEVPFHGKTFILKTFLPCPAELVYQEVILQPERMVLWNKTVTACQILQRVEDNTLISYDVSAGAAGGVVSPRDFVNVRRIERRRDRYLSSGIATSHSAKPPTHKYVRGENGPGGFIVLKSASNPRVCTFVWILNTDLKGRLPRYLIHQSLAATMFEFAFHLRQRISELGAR
In words: Differential scanning fluorimetry (DSF), STARD3. The following applies: single dose, Dose = 10 µM.

19 compounds from PMC11758220, “Identification of a Privileged Scaffold for Inhibition of Sterol Transport Proteins through the Synthesis and Ring Distortion of Diverse, Pseudo-Natural Products” (ACS Central Science, 2025) can be followed below.

The structures appear in SMILES notation.

In the case of `C[C@]12CC[C@@H](O)C[C@H]1CCC(=O)c1ccccc1NC2=O` [Compound 11a], at Aster-A, the “Aster-A (FP) inhibition” value is given as -1%. Further, at Aster-B, the “Aster-B (FP) inhibition” value turned out to be 10%. Moreover, the “STARD3 (DSF) ΔTm” value at STARD3 is -0.0327 °C.
Regarding `C[C@]12CC[C@@H](O)C[C@H]1CCC(=O)c1cc(Br)ccc1NC2=O` [Compound 11b], the inhibition at 10 µM at Aster-A stood at 1%; at Aster-B it was 7.5%. Also, the ΔTm at 10 µM at STARD3 was -0.0537 °C.
On the same counts, the results for `Cc1ccc2c(c1)C(=O)CC[C@@H]1C[C@H](O)CC[C@]1(C)C(=O)N2` [Compound 11c] are -4%, 6% and -0.0522 °C.
With `COc1ccc2c(c1)C(=O)CC[C@@H]1C[C@H](O)CC[C@]1(C)C(=O)N2` [Compound 11d], the inhibition at 10 µM at Aster-A was -1%; on Aster-B it was 4%. Also, the shift in melting temperature (ΔTm) at 10 µM on STARD3 is -0.119 °C.
On the same counts, the results for `C[C@]12CC[C@@H](O)C[C@H]1CCC(=O)c1cc(C(F)(F)F)ccc1NC2=O` [Compound 11e] are -2%, 7% and -0.0434 °C.
For `C[C@]12CC[C@@H](O)C[C@H]1CCC(=O)c1cc(Cl)cc(F)c1NC2=O` [Compound 11f], at Aster-A, the “Aster-A (FP) inhibition” value is -1%. Moreover, the “Aster-B (FP) inhibition” value at Aster-B is recorded as 11%. The “STARD3 (DSF) ΔTm” value at STARD3 was -0.0767 °C.
For the compound `Cc1cc(C)c2c(c1)NC(=O)[C@@]1(C)CC[C@@H](O)C[C@H]1CCC2=O` [Compound 11g], the inhibition at 10 µM came out at 0% at Aster-A and 11% at Aster-B. In addition, the ΔTm at 10 µM at STARD3 is -0.0181 °C.
On the same counts, the results for `Cc1ccc2[nH]c3c(c(=O)c2c1)C[C@@H]1C[C@H](O)CC[C@]31C` [Compound 12] are -1%, 11% and -0.0694 °C.
`Cc1ccc2c(c1)[C@]1(O)CC[C@@H]3C[C@H](O)CC[C@]3(C)C1=N2` [Compound 14a]: the values for the inhibition at 10 µM at Aster-A and at Aster-B were 3% and 12%, respectively. The ΔTm at 10 µM at STARD3 was 0.2 °C.
On the same counts, the results for `COc1ccc2c(c1)[C@]1(O)CC[C@@H]3C[C@H](O)CC[C@]3(C)C1=N2` [Compound 14b] are 8%, 17% and 0.0447 °C.
On the same counts, the results for `Cc1cc(C)c2c(c1)N=C1[C@@]2(O)CC[C@@H]2C[C@H](O)CC[C@]12C` [Compound 14c] are 2%, 17% and 0.0424 °C.
`C[C@]12CC[C@@H]3C[C@H]1CC[C@@]21C(=Nc2ccccc21)O3` [Compound 15a]: the IC50 at Aster-A was 7.17 µM; at Aster-B, over 80 µM. Moreover, the inhibition at 10 µM was 43% at Aster-A and 13% at Aster-B. Moreover, at STARD3, the ΔTm at 10 µM is -0.061 °C.
On the same counts, the results for `CC12CCC3CC1CCC21C(=Nc2ccc(Cl)cc21)O3` (centres unmarked) [Compound 15c] are 4.59 µM, over 80 µM, 50%, 12% and 0.0794 °C.
On to `C[C@]12CC[C@@H]3C[C@H]1CC[C@@]21C(=Nc2ccc(F)cc21)O3` [Compound 15d], for which, at Aster-A, the concentration for half-maximal inhibition (IC50) came out at 12.5 µM and the inhibition at 10 µM came to 25%. Further, on Aster-B, the IC50 was over 80 µM and the inhibition at 10 µM came to 11%. Also, the shift in melting temperature (ΔTm) at 10 µM on STARD3 stood at 0.129 °C.
Take `Cc1ccc2c(c1)[C@@]13CC[C@@H]4C[C@@H](CC[C@@]41C)OC3=N2` [Compound 15e]: at Aster-A, the concentration for half-maximal inhibition (IC50) stood at 6.03 µM and the inhibition at 10 µM was determined as 45%. In addition, at Aster-B, the concentration for half-maximal inhibition (IC50) is over 80 µM and the inhibition at 10 µM stood at 27%. Moreover, the shift in melting temperature (ΔTm) at 10 µM at STARD3 amounted to 0.167 °C.
On the same counts, the results for `COc1ccc2c(c1)[C@@]13CC[C@@H]4C[C@@H](CC[C@@]41C)OC3=N2` [Compound 15f] are 5.06 µM, 51%, over 80 µM, 23% and 0.559 °C.
As to `C[C@]12CC[C@@H]3C[C@H]1CC[C@@]21C(=Nc2ccc(C(F)(F)F)cc21)O3` [Compound 15g], the concentration for half-maximal inhibition (IC50) was 1.6 µM at Aster-A and over 80 µM at Aster-B. For the same compound, the inhibition at 10 µM came out at 79% at Aster-A and 18% on Aster-B. In addition, at STARD3, the ΔTm at 10 µM came to 0.655 °C.
For `CC12CCC3CC1CCC21C(=Nc2c(Br)cc(C(F)(F)F)cc21)O3` (centres unmarked) [Compound 15h], on Aster-A (FP), the “Activity against Aster-A (in words)” value is “inactive against Aster-A”. For the same compound, at Aster-A, the IC50 was over 80 µM and the inhibition at 10 µM turned out to be 2%. For the same compound, on Aster-B, the IC50 was over 80 µM and the inhibition at 10 µM was determined as 18%. For the same compound, the ΔTm at 10 µM on STARD3 turned out to be 0.0409 °C.
As to `C[C@]12CC[C@@H]3C[C@H]1CC[C@@]21C(=Nc2c(F)cc(Cl)cc21)O3` [Compound 15i], at Aster-A, the IC50 was determined as 3.63 µM and the inhibition at 10 µM is 46%. At Aster-B, the IC50 was over 80 µM and the inhibition at 10 µM is 13%. Further, on STARD3, the ΔTm at 10 µM was -0.0884 °C.

The inhibition is the drop in the measured response relative to a control, in per cent. A word on the ΔTm: it is the shift of the melting midpoint relative to a reference. What is called IC50 is the concentration that inhibits the measured activity by half. Read a high IC50 as a need for much substance.
